{
  "source": "BindingDB's records for PubMed 36250680",
  "about": "(University of Pisa, 2022)",
  "molecular_target": "Macrophage metalloelastase (Homo sapiens, UniProt P39900)",
  "sequence (P39900 whole entry)": "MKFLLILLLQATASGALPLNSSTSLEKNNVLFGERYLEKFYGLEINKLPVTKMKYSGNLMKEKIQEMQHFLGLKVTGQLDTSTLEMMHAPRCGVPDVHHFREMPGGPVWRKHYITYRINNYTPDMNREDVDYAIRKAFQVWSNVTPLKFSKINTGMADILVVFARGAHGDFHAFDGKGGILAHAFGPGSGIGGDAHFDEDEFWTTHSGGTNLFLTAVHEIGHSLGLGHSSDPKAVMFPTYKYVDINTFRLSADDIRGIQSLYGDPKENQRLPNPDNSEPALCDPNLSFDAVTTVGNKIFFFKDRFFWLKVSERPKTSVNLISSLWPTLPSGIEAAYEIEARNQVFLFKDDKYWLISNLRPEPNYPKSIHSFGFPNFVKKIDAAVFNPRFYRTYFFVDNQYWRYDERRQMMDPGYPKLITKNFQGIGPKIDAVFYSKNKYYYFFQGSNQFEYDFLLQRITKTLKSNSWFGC",
  "assay": "Inhibition of MMP12 (unknown origin)",
  "data": [
    {"smiles": "Oc1cccc(O)c1O", "values": [
      {"measurement": "Ki", "result": 2030, "unit": "nM"}
    ]}
  ]
}
